Assay results taken from patent US12636368B2, “Ionizable lipids for nucleic acid delivery” (Global Life Sciences Solutions Canada ULC, priority 2019, dated 2026).
Read-outs that look alike come from different tables or passages of the source.

What was measured:
primary human T cells = test: EPO ELISA after EPO mRNA LNP treatment of primary human T cells; format: cell-based; settings: Table 5; for EPO concentration (mIU/mL): EPO mRNA LNPs, 2 pg mRNA per 500,000 cells, N/P 10, 48 hours
Description: Reagents were acquired from Quantikine, Minneapolis, MN. The assay was performed as directed on the Quantikine® IVD® ELISA Human Erythropoietin Immunoassay protocol. REF DEP00 Package Insert. Briefly; primary human T cells were isolated from fresh whole blood using a negative selection protocol and activated using a triple activator. Seven days post-activation, T cells were dosed with mRNA LNPs encoding EPO at 2 pg mRNA per 500,000 cells and N/P 10. Quantikine® Human Serum Controls were used. After 48 hours of treatment with mRNA LNPs the T cells were harvested and lysed for cytosolic EPO and media supernatant was sampled for secreted EPO. Table 5 includes the data of FIG. 6 as well as the fold increase of EPO for PNI 76 and 121 versus MC3.

[1] = TNS assay, surface pKa of lipid nanoparticles; format: physicochemical
Description: In embodiments of the invention, the experimental pKa of formulated lipid nanoparticles comprising lipids in Table 1 is calculated using the 2-(p-toluidinyl)naphthalene-6-sulfonic acid (TNS) assay. The procedure for the TNS assay is described in Example 25.
The pKa of each cationic lipid was determined in lipid nanoparticles using an assay based on fluorescence of 6-(p-Toluidino)-2-naphthalenesulfonic acid sodium salt (TNS, Sigma Aldrich), which is a fluorescent probe for the conformational state of proteins5. Empty lipid nanoparticles comprising ionizable lipid in LM02 composition in distilled water at a concentration of 3.125 mM total lipid are formulated using NanoAssemblr® Spark™, and were then was characterized for LNP quality on the Zetasizer™ using a 30× dilution with 1×PBS in the low volume cuvette. Lipid nanoparticles were further diluted 4× using distilled water to 0.781 mM total lipid. TNS was prepared as a 25 μM stock solution in distilled water. Then 6.4 μL of diluted LNP samples of 0.781 mM total lipid were mixed with 10 μL of diluted TNS to a final volume of 250 μL with buffer containing 10 mM HEPES, 10 mM MES, 10 mM NH4OAc and 130 mM NaCl where the pH ranged from 3 to 9 in 0.5 pH increments.
Samples were mixed thoroughly, and the fluorescence intensity was measured at room temperature in a BioTek™ Synergy™ H1 Hybrid Multi-Mode Monochromator™ Fluorescence Microplate Reader using excitation and emission wavelengths of 321 nm and 445 nm respectively. A sigmoidal best fit analysis was applied to the fluorescence data using GraphPad Prism™ software, and the pKa was measured as the pH at half-maximal fluorescence intensity.

[2] = Nucleic acid encapsulation efficiency by RiboGreen assay; format: physicochemical
Description: Messenger RNA or plasmid NAT was diluted using sodium acetate buffer to the required concentration. Lipid nucleic acid particle samples were then prepared by running both fluids using the NanoAssemblr® Spark instrument. […] The lipid nucleic acid particles made in the instrument were immediately diluted down with 48 μL Ca and Mg free 1×PBS at pH 7.4 in the aqueous output well. These nucleic acid lipid particles were immediately collected into microcentrifuge tubes containing 96 μL of Ca and Mg free 1×PBS at pH 7.4. Encapsulation efficiency was measured by a modified Ribogreen™ assay (Quanti-iT RiboGreen™ RNA assay kit, Fisher). Observed particle attributes were generally sized from 60-200 nm for mRNA, depending on lipid composition and method of production.
(§1) Physical characteristics of lipid nanoparticle (LNP) compositions comprising compounds according to Formula (I) and that were manufactured on the NanoAssemblr® Spark and Benchtop, are shown in Tables 6 and 7 below. Size, size variation of the LNP (PDI), encapsulation efficiency, and pKa are shown. The physical characteristics of these LNP are important from a standpoint of stability, biodistribution, and cell membrane crossing. There was good encapsulation in all the formulations, with polydispersity (PDI) under 0.3. Size and PDI were measured using dynamic light scattering techniques, and nucleic acid encapsulation efficiency was calculated from a modified Quant-iT RiboGreen RNA assay.

human T cells = test: eGFP ELISA after eGFP mRNA LNP treatment of human T cells; format: cell-based; settings: Table 4
Description: Reagents were acquired from Abcam, Cambridge, UK unless otherwise stated. […] The assay was performed as directed by the eGFP SimpleStep ELISA® Kit protocol. Briefly; frozen human T cells, previously isolated from fresh human whole blood using a negative selection protocol, were thawed and activated using a triple activator. […] After 48 hours of treatment with mRNA LNPs the T cells were harvested and lysed for total eGFP content.
In order to expose the isolated and activated T cells (Day 0) to the formulated mRNA, 2 ug of CleanCap™ eGFP (Trilink Biotechnologies, San Diego, CA) mRNA-containing LNP was added to 500,000 T cells in 1 mL of complete T cell media, with 1 ug/mL of Recombinant Human ApoE4 (“ApoE”) (Peprotech Inc., Montreal, Canada).
Frozen human T cells, previously isolated from fresh human whole blood using a negative selection protocol, were thawed and activated using a triple activator. At 10 days post-activation, T cells were dosed with CT10 mRNA LNPs LNP comprising DLin-MC3-DMA, PNI 76, PNI 119, PNI 120, PNI 121, and PNI 122 encoding eGFP at 2 pg mRNA per 500,000 cells and N/P 10. Protein expression was measured after 48 hours by eGFP ELISA.

[3] = test system: isolated primary human T cells; test: GFP mRNA-LNP transfection of primary human T cells, flow cytometry; format: cell-based
Description: Reagents were from Stemcell Technologies unless otherwise stated. Tcells were isolated from a single donor. At 48 h following lipid particle mRNA exposure, the treated T cells were harvested by transferring the cell suspensions to pre-labeled 1.5 mL tubes and centrifuged 300×g at 4 degrees C. for 10 minutes. Supernatant was removed and the pellet resuspended in PBS. An amount of 0.5 ul of BD Horizon™ Fixable Viability Stain 575V™ (BD Biosciences), was added, and the mixture incubated in the dark for 10 minutes at RT. This stain binds to amines.
The cells were centrifuged again as before, then washed twice with 1 mL of stain buffer (BSA, BD Pharminigen), and the washed pellet was diluted in 100 μl BSA. The following antibodies were added to each tube of treated cells in 2 μl volumes: CD25, CD8, CD4, (PerCP-Cy™ 5.5 Mouse Anti Human CD25, BV786 Mouse Anti-Human CD8 Clone RPA-T8, APC-Cy™7 Mouse Anti-Human CD4 Clone SK3 (all from BD Pharmingen) with the exception of the controls: in the eGFP only sample and viability control, no antibody was added. In the single stain compensation tubes, only one antibody per tube was added.
The tubes were incubated at 4 degrees C. for 30 min, whereupon […] of stain buffer was added, and the cells were centrifuged again. Cells were washed once with 1 mL of stain buffer and spun down again as in step one. Cell pellets were resuspended in 1 mL of stain buffer and added to pre-labeled flow tubes with cell strainer caps (Corning Falcon). […]
GFP MFI was measured by flow cytometry 48 hours after LNP addition. T cells were isolated from whole blood using a negative isolation procedure (EasySep™ Human T Cell Isolation Kit, Stemcell Technologies). T cells were dosed with mRNA-LNPs 3 days after activation with 500 ng of encapsulated mRNA per 125,000 cells. The LNP were CT10 compositions with an N/P of 8. Transfection efficiency (upper graph) and MFI (lower graph) were measured by flow cytometry 48 h after LNP addition.

[4] = LNP size and PDI by dynamic light scattering; format: physicochemical
Description: After the lipid particles were made as described supra, particle size (hydrodynamic diameter of the particles) was determined by Dynamic Light Scattering (DLS) using a ZetaSizer™ Nano ZS™ (Malvern Instruments, UK). He/Ne laser tuned to 633 nm wavelength was used as the light source. Data were measured from the scattered intensity data conducted in backscattering detection mode (measurement angle=173). Measurements were an average of 10 runs of two cycles each per sample. Z-Average size was reported as the particle size, and is defined as the harmonic intensity averaged particle diameter.
as §1

[5] = Table 7, EPO mRNA LNPs, LM02, N/P 6
[6] = Table 6, GFP-encoded LNPs, CT10, N/P 8

| pKa ([1]; Table 1, formulated lipid nanoparticles, TNS assay, read-out: Exp. pKa) | pKa ([1]; Table 4, determined by TNS assay, read-out: pKa Ex.) | pKa ([1]; Table 5, read-out: pKa Exp.) | pKa ([1]; Table 8, read-out: Exp.pKa) | Encapsulation Efficiency (%) [2, 5] [%] | Diameter (Z. ave, nm) [4, 5] [nm] | Polydispersity Index (PDI) [4, 5] | pKa Exp. ([1]; Table 5) | Encapsulation Efficiency (%) [2, 6] [%] | Diameter (Z. ave, nm) [4, 6] [nm] | Polydispersity Index (PDI) [4, 6] | SMILES | EPO Fold Change Relative to MC3 (primary human T cells) | EPO concentration (mIU/mL) (primary human T cells) | Fold Change Relative to MC3 (human T cells; eGFP (pg) relative to MC3) | eGFP (human T cells; quantity of expressed eGFP, eGFP mRNA LNPs, CT10) [pg] | transfection efficiency compared with MC3 ([3]; FIG. 1, eGFP mRNA LNP, CT10, N/P 10, 48 hours after treatment) | % eGFP + ([3]; Table 4, transfection efficiency, eGFP mRNA LNPs, CT10, N/P 8) [%] |
| --- | --- | --- | --- | --- | --- | --- | --- | --- | --- | --- | --- | --- | --- | --- | --- | --- | --- |
| 6.42 | 6.42 | 6.42 | 6.4 | 88.9 | 83.1 | 0.16 | – | – | – | – | CCCCCCCCCCCCCC(=O)O[C@H]1COC([C@@H](COC(=O)CCCN(C)C)OC(=O)CCCCCCCCCCCCC)[C@@H]1OC(=O)CCCCCCCCCCCCC (stereo partly shown) [PNI 76] | 0.93 | 507.3 | 1.095 | 1502.0 | equal transfection efficiency as MC3 | 62.35 |
| – | – | – | – | 98.8 | 65.1 | 0.04 | 5.99 | 88.6 | 77.2 | 0.11 | CCCCC/C=C\C/C=C\CCCCCCCCC(CCCCCCCC/C=C\C/C=C\CCCCC)OC(=O)CCCN(C)C [MC3, DLin-MC3-DMA, reference compound] | 1.0 | 545.2 | – | – | – | – |
